Square brackets hold non-standard residues; d marks the D form. Peptide text beside a SMILES is read from it. Dolaproine = CO[C@@H]([C@@H]1CCCN1)[C@@H](C)C(=O)O; Dil = CC[C@H](C)[C@H](NC)[C@@H](CC(=O)O)OC; NMeV = CN[C@H](C(=O)O)C(C)C

The subject of data set [1] is MOLM-13 xenograft. Briefly: MOLM-13 xenograft in NSG mice, bioluminescence imaging. Type of data set: in vivo. As to conditions: 3 mg/kg; Q1W×2.
For data set [2], the system named is MOLM-13 cells. Briefly: Cytotoxicity in MOLM-13, 96 h resazurin. Type of data set: cell-based, human. From the text: (A) Correlation of MFI of CD64 cell surface expression and MFI of FLT3 cell surface expression of myeloid human cell lines measure in flow cytometry. Expression data presented in Supplementary FIGS. 4A and B. Black line indicates simple linear regression with error interval. r=Pearson correlation coefficient; r^2=Coefficient of determination; p=p value from two tailed test with confidence interval of 95%. MFI=mean fluorescence intensity. (B,C,E,F) Assessment of cytotoxicity of ADCs in different human cell lines. Viability was determined after 96h treatment with different concentrations of ADCs by resazurin fluorescence and normalized to untreated control. Dashed line indicates 100 ng/ml drug concentration. Mean±s.d. of n=3 biological replicates. […] Black line indicates simple linear regression with error interval. (E) Treatment of FLT3 positive human cell lines with IgG1-ADC.
Background: Alamar Blue is a resazurin reagent that responds to reducing activity.

Data set [3] concerns FLT3 cell surface expression in MOLM-13 cells. As to the kind of experiment: FLT3 cell surface expression in MOLM-13 after kinase inhibitors, flow cytometry. In kind it is cell-based, human. The settings on record: 6, 24, 48 and 72 h incubation. Here is the method:
Cells were analyzed in flow cytometry after treatment. Dotted line represents MFI ratio of untreated cells. Mean±s.d. of n=2 is depicted. […] Grey triangles indicate increasing drug concentrations. […] Mean±standard deviation is depicted.
(In flow cytometry, cells or beads pass a laser one at a time.)

Data set [4] concerns the target T1, Ba/F3 cells expressing human wildtype FLT3 (Homo sapiens, UniProt P36888).
T1 sequence (P36888 27-993): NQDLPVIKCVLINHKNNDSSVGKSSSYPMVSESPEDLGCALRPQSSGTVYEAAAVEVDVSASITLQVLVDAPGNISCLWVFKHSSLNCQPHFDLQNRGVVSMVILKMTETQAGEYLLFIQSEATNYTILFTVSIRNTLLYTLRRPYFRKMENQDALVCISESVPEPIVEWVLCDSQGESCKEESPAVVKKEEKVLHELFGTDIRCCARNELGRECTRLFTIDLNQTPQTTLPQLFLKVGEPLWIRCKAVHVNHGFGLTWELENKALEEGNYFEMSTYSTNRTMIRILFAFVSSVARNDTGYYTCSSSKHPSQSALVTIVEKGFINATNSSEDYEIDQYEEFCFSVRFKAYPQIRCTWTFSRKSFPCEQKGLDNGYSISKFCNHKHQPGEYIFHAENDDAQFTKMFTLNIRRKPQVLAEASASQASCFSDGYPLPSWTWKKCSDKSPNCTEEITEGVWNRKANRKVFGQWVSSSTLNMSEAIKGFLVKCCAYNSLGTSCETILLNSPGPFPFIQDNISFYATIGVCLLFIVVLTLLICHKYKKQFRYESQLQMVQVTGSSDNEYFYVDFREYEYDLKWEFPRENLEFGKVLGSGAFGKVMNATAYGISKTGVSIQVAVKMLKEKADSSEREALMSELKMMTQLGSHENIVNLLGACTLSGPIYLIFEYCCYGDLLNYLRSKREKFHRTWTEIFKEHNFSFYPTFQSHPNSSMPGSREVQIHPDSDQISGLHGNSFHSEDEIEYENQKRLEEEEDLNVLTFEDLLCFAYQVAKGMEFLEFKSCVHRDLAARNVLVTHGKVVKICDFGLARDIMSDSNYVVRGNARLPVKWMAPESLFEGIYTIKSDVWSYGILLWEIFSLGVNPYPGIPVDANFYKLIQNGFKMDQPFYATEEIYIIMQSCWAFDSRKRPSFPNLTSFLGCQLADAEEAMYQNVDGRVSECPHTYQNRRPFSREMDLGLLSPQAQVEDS
As to the kind of experiment: Cytotoxicity in Ba/F3 hFLT3 wt, 72 h. The settings on record: Ba/F3 cells expressing the empty vector or human wild type FLT3. As to the method:
(§1) (A) Schematic process of P5 conjugation technology via disulfite bond reduction and Staudinger induced Michael addition. Final ADC consists of monoclonal antibody (20D9 or IgG1 antibody) coupled to monomethyl-auristatin F toxin. Figure was created with BioRender.com. (B-E,G) Assessment of cytotoxicity of ADCs in different Ba/F3 cell lines. Viability was determined after 72 h treatment with different concentrations by trypan blue exclusion count and compared to untreated control. Mean±s.d. of n=3 biological replicates. […] Calculation based on data from FIGS. 2E and 2G calculated by GraphPad Prism. Unpaired, two-tailed Student's t-test; *p<0.05. Each dot represents a replicate, horizontal line indicates mean.
(§2) AML cells were treated once (d0) and viability was determined after 96h using Resazurin solution (50 µM final concentration, 4 h incubation) (R12204, Thermo Fisher Scientific). For Ba/F3 cell assays, cells were treated once (d0) and viable cells were counted after 72 h on Vi-Cell Cell Viability Analyzer (Beckman Coulter, Krefeld, Germany). Calculation of IC50 values were performed using GraphPad Prism version 6.07 (GraphPad Software, La Jolla, CA, USA).

Data set [5] has as its system CD34 positive healthy bone marrow (BM) cells. As to the kind of experiment: Differentiation assessment of healthy CD34+ cells. The settings on record: 1 μg/ml.
Text: (§3) (D) Differentiation assessment after staining to differentiation markers. CMP: common myeloid GMP: progenitors; granulocyte-monocyte progenitors; MEP: megakaryocyte/erythroid progenitors; MLP: multilymphoid progenitors; MPP: multipotent progenitors; hematopoietic stem cells (HSC). (E) Assessment of clonogenic capacity of healthy CD34+ BM cells. […] After 14 days, colonies were counted. GEMM: granulocyte, erythrocyte, macrophage, megakaryocyte. GM: granulocyte, macrophage. M: macrophage. G: granulocyte. E: erythrocyte. BFU-E: burst-forming unit erythrocyte. CFU: colony forming unit. 2way ANOVA; *p<0.05; Mean±s.d. of n=5.
The subject of data set [6] is healthy CD34+ BM cells. The settings on record: 1 μg/ml.
Text: as §3
The subject of data set [7] is CD34 positive healthy bone marrow (BM) cells. As to the kind of experiment: Viability of healthy CD34+ bone marrow cells, Annexin V/PI, 4 days. The settings on record: 1000 ng/ml.
Text: (C) Percentage of living cells measured with Annexin V/PI staining and normalized to PBS.
Data set [8] concerns Ba/F3-pMIY-CD64 expressing cells. As to the kind of experiment: Cytotoxicity in Ba/F3-pMIY-CD64, 72 h. In kind it is cell-based, human. Here is the method:
as §1, §2

In data set [9] the test system is Ba/F3 cells expressing both FLT3 and CD64. As to the kind of experiment: Cytotoxicity in Ba/F3-CD64-FLT3, 72 h. Type of data set: cell-based, human. As to the method: as §1, §2

As for “deglycosylated IgG1-ADC: IgG1-ADC with N-linked glycans removed”, in data set [1], the “Anti tumor effect, native and deglycosylated ADCs” value was “only a minimal effect compared to PBS control mice”. Moreover, in data set [2], the “Activity on MOLM-13 cells” value is “no activity”.

Regarding `CNC(=O)c1cc(Oc2ccc(NC(=O)Nc3ccc(Cl)c(C(F)(F)F)c3)cc2)ccn1` [Sorafenib], in data set [3], the “FLT3 cell surface expression” value is recorded as “increase of FLT3 cell surface expression”.

In the case of `CC[C@H](C)[C@@H]([C@@H](CC(=O)N1CCC[C@H]1[C@H](OC)[C@@H](C)C(=O)N[C@@H](Cc1ccccc1)C(=O)O)OC)N(C)C(=O)[C@@H](NC(=O)[C@@H](NC)C(C)C)C(C)C` [MMAF, monomethyl auristatin F] (H-[NMeV]V[Dil][Dolaproine]F-OH), the Cytotoxicity of controls result in data set [4] was “no difference in cytotoxicity”.

Turning to “IgG1-ADC: MMAF conjugated to the IgG1 based antibody palivizumab; CD64 but no FLT3 binding”, the Cytotoxicity of controls result in data set [4] is “no cytotoxicity”. For the same compound, the “Differentiation: cell populations of CD34+ cells” value in data set [5] is “significantly decreased MLPs, CMPs, and GMPs but to a lower extent compared to the 20D9 ADC”. For the same compound, the “Clonogenic capacity (CFU)” value in data set [6] was “significantly reduced granulocytic, monocytic and granulocytic-macrophagic colony formation”. The “Anti tumor effect, native and deglycosylated ADCs” value in data set [1] is “reduced compared to native 20D9-ADC”. The “Cell viability of CD34+ cells” value in data set [7] is “significantly decreased cell viability”. In data set [8], the “IC50, Ba/F3-pMIY-CD64” value was 31.8 ng/ml. The “IC50, Ba/F3 expressing both FLT3 and CD64” value in data set [9] turned out to be 78.3 ng/mL.

(Values after patent US20250049939A1, “NOVEL FLT3 ANTIBODIES AND ANTIBODY-DRUG-CONJUGATES BASED THEREON, THERAPEUTIC METHODS AND USES THEREOF IN COMBINATION WITH TYROSINE KINASE INHIBITORS” (TUBULIS GmbH, priority 2021, published 2025).)
